Data: patent US20220323583A1, “Pharmaceutical Formulations of Bi-Specific Diabodies and Use of the Same” (MacroGenics, Inc., priority 2019, published 2022)
Values belong to the compound of their own block, whether it stands above or below them.

Legend:
[1] = RP-HPLC for BA and MP recovery (preservative concentration); assay type: physicochemical; details: for Tested Benzyl Alcohol Concentration: Study 2, diluted DART-A DP formulation in cassette 25° C., 100 rpm, 5000 ng/mL, expected 0.86%
Description: Preservative recovery was measured using Reverse Phase (RP) HPLC analysis. The RP-HPLC configuration included a photodiode array (PDA) detector (λBA=254 nm, λMP=340 nm), a mobile phase composition of 40% acetonitrile, 0.1% formic acid and a Zorbax® 5 μm Eclipse-XDB-C18 80 Å liquid chromatography column. Samples were diluted ten-fold. The column temperature was set to 40±5° C. 50 μL of solution was injected for each 10-minute run.

USP recommended microbes = assay: Microbial challenge testing, statements on several microbes together; assay type: cell-based
Description: Microbial challenge testing was performed to evaluate the preservative effect of stabilizer solutions containing ≤0.17% BA and ≤0.1% MP. Microbial challenge testing was chosen as it more accurately represents the proposed dose preparation and dilution scheme where doses will be prepared aseptically and the number of microbes that may be introduced to the solution would be low. Microbial challenge testing was performed in two stages. The first stage determined the effective concentrations of BA and MP while the second stage tested the final formulation according to USP specifications. Each stage is described in detail below.
To confirm the anti-microbial properties of Stabilizer 2 once diluted in saline (i.e., in the dosing solution), microbial growth testing was performed by SGS Life Sciences. The USP recommended microbes required for testing are listed below in Table 26.
A high dosing solution (150 kg patient at 1,000 ng/kg cohort) was prepared to represent the maximum preservative dilution. […] Microbial growth studies were performed on all five USP recommended microbes with a target concentration between 10 and 100 CFU/mL. The microbial growth results are listed below in Table 27.
Microbial Challenge Testing was performed to evaluate the preservative effect of stabilizer solutions. In short, high concentration (1250 ng/mL) dosing solution was prepared according Table 36. USP<51> recommended microbes were introduced to the solution with a target concertation between 10 and 100 CFU/mL. Solutions were stored at the USP<51> recommended temperature for each microbe and at predetermined time points, samples were collected. Testing of samples was performed according to USP<1227>. The threshold for no microbial growth was established to be not greater than 0.5 log colony count compared to the initial concentration of microbe.

[2] = Stabilizer solution optimizing studies (turbidity, miscibility, pH, MP in solution); assay type: physicochemical
Description: Since the BA concentration in the stabilizer solution is limited due to patient safety concerns, to increase the preservative effectiveness duration, the MP concentration in the stabilizer solution could be increased to 0.1%. However, when the concentrated stabilizer solution is presented as a 20 mL additive volume, this level of MP leads to high solution pH (≥9.0), solution turbidity, and PS80 immiscibility. To address these issues, a series of stabilizer solution optimizing studies were performed to determine the final concentrated stabilizer solution.
The first study explored lower levels of PS80 in the concentrated stabilizer solution to determine if the turbidity and solution instability or immiscibility issues can be addressed. […] However, this concentration of PS80 remains turbid at room temperature. A subsequent study evaluating larger concentrated stabilizer solution additive volume presentations was performed to determine if lowering the levels of all excipients in the concentrated stabilizer solution helps address the high turbidity issue. […] To determine optimal concentrated stabilizer solution pH, studies varying the formulation buffer strength were performed. […] As a result, variable concentrations of MP were evaluated in a subsequent study. […] Based on the results of the previous PS80 and MP studies, a final study was performed evaluating variable concentrations of MP and PS80 to determine the optimal combination that addresses solution turbidity at an acceptable pH. […] When 40 mL of this stabilizer solution is diluted in a 250 mL saline bag, the resulting dosing solution will contain 0.17% BA and 0.055% MP. […] As a result, the preservative effectiveness of the re-formulated Stabilizer 2 solution having final preservative levels of 0.17% BA and 0.05% MP in the dosing solution, was examined through microbial challenge testing of USP recommended microbes.
However, BA levels above 15.5 mg/mL result in solution instability or immiscibility and MP levels above 5.3 mg/mL produce a final solution above pH 8.4. […]

[3] = target: T1, soluble recombinant human IL-3 receptor alpha (rhIL3Rα) (Homo sapiens, UniProt P26951); assay: ELISA (rhIL3Rα) DART-A quantitation assay (concentration, protein recovery); details: 0.05 mg/mL PS80 or 0.1 mg/mL PS80
T1 construct: soluble recombinant human IL-3 receptor alpha (rhIL3Rα)
T1 sequence (P26951 19-305 limits assumed): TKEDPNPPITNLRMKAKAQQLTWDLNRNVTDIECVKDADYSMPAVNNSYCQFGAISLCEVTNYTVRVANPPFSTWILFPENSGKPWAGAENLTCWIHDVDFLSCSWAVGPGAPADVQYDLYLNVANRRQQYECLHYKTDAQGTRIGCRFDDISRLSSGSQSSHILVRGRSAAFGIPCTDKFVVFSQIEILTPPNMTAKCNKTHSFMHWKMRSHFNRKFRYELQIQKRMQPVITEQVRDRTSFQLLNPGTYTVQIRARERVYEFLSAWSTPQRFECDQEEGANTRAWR
Description: In brief, the assay plate was coated with soluble recombinant human IL-3 receptor alpha (rhIL3Rα) overnight. […] After addition of MSD Read Buffer, the plate was inserted into the Sector Imager 2400 Plate Reader. When a voltage was applied to the plate electrodes, the bound Sulfo-TAG label produces an ECL signal, which was captured by the plate reader. A quantitative measure of the ECL signal emitted by each well was recorded, and the ECL counts emitted by the standard calibrators were used to generate a standard curve using a 4-parameter logistic (4PL) fit.

BA content ([1]; Study 2, 25° C., 100 rpm shaking for up to 72 hours): at least 0.75% | Tested Benzyl Alcohol Concentration ([1]; T = 0): 0.91% | Tested Benzyl Alcohol Concentration ([1]; T = 24 hours): 0.78% | Tested Benzyl Alcohol Concentration ([1]; T = 48 hours): 0.76% | Tested Benzyl Alcohol Concentration ([1]; T = 72 hours): 0.78% | BA level that results in solution instability or immiscibility ([2]; stabilizer solution): above 15.5 mg/mL
Compound: OCc1ccccc1 [Benzyl Alcohol, benzyl alcohol]
antimicrobial property (USP recommended microbes; BA 0.17% alone (single pump target concentration)): does not inhibit growth | antimicrobial property (USP recommended microbes; BA 0.9% (concentration in Stabilizer 1), P. aeruginosa and C. albicans): both bactericidal and fungicidal | BA concentration that provided sufficient anti-microbial activity (USP recommended microbes; previous study): 0.61%

share of the target MP concentration that stays in solution ([2]; concentrated stabilizer solution, pH≤8.0): 30-50% | MP level that produces a final solution above pH 8.4 ([2]; stabilizer solution): above 5.3 mg/mL
Compound: COC(=O)c1ccc(O)cc1 [MP, methylparaben]

blocking activity (inhibition of DART-A adsorption) [3]: sufficient blocking activity
Compound: polysorbate 80 [PS80]
